Test results: PubChem BioAssay (NCI)
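96-well plates; 48 h exposure; 5 concentrations. Endpoints by linear interpolation between flanking doses. Not reached: highest tested concentration assigned. Definition used: TGI = concentration required for complete inhibition of growth.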

Tests used:
Test in all cases: DTP human tumour cell line panel, 48 h
[1] = tested on: MDA-MB-231 breast
[2] = tested on: CAKI-1 renal
[3] = tested on: NCI-H226 lung
[4] = tested on: CCRF-CEM leukemia
[5] = tested on: NCI-H460 lung
[6] = tested on: SK-OV-3 ovarian
[7] = tested on: U251 CNS
[8] = tested on: MDA-MB-435
[9] = tested on: OVCAR-8 ovarian
[10] = tested on: HT29 colon
[11] = tested on: UACC-257 melanoma
[12] = tested on: UO-31 renal
[13] = tested on: SNB-75 CNS
[14] = tested on: MALME-3M melanoma
[15] = tested on: OVCAR-4 ovarian
[16] = tested on: KM12 colon
[17] = tested on: HOP-62 NSCLC
[18] = tested on: HCT-116 colon
[19] = tested on: COLO 205 colon
[20] = tested on: SK-MEL-28 melanoma
[21] = tested on: HL-60(TB) leukemia
[22] = tested on: UACC-62 melanoma
[23] = tested on: SR leukemia
[24] = tested on: NCI-H522 lung
[25] = tested on: SK-MEL-2 melanoma
[26] = tested on: A498 renal
[27] = tested on: SF-295 CNS
[28] = tested on: K-562 leukemia
[29] = tested on: NCI/ADR-RES ovarian
[30] = tested on: SW-620 colon
[31] = tested on: IGROV1 ovarian
[32] = tested on: DU-145 prostate
[33] = tested on: NCI-H23 lung
[34] = tested on: LOX IMVI melanoma
[35] = tested on: ACHN renal
[36] = tested on: M14 melanoma
[37] = tested on: SF-268 CNS
[38] = tested on: HOP-92 NSCLC
[39] = tested on: OVCAR-5 ovarian
[40] = tested on: HCT-15 colon
[41] = tested on: RXF 393 renal
[42] = tested on: OVCAR-3 ovarian
[43] = tested on: SN12C renal
[44] = tested on: A549 NSCLC
[45] = tested on: SF-539 CNS
[46] = tested on: 786-0 renal
[47] = tested on: HCC-2998 colon
[48] = tested on: T-47D breast
[49] = tested on: PC-3 prostate
[50] = tested on: MCF7 breast
[51] = tested on: MOLT-4 leukemia
[52] = tested on: MDA-N
[53] = tested on: SNB-19 CNS
[54] = tested on: TK-10 renal
[55] = tested on: EKVX NSCLC
[56] = tested on: SK-MEL-5 melanoma
[57] = tested on: HS 578T breast
[58] = tested on: RPMI-8226 leukemia

CCS(=O)(=O)c1c2cc(OC)ccc2nc2ccc(OC)cc12
TGI [1]: > 100 µM
TGI [2]: > 100 µM
TGI [3]: > 100 µM
TGI [4]: > 100 µM
TGI [5]: > 100 µM
TGI [6]: > 100 µM
TGI [7]: > 100 µM
TGI [8]: > 100 µM
TGI [9]: > 100 µM
TGI [10]: > 100 µM
TGI [11]: > 100 µM
TGI [12]: > 100 µM
TGI [13]: > 100 µM
TGI [14]: > 100 µM
TGI [15]: > 100 µM
TGI [16]: > 100 µM
TGI [17]: > 100 µM
TGI [18]: > 100 µM
TGI [19]: > 100 µM
TGI [20]: > 100 µM
TGI [21]: > 100 µM
TGI [22]: > 100 µM
TGI [23]: > 100 µM
TGI [24]: > 100 µM
TGI [25]: > 100 µM
TGI [26]: > 100 µM
TGI [27]: > 100 µM
TGI [28]: > 100 µM
TGI [29]: > 100 µM
TGI [30]: > 100 µM
TGI [31]: > 100 µM
TGI [32]: > 100 µM
TGI [33]: > 100 µM
TGI [34]: > 100 µM
TGI [35]: > 100 µM
TGI [36]: > 100 µM
TGI [37]: > 100 µM
TGI [38]: > 100 µM
TGI [39]: > 100 µM
TGI [40]: > 100 µM
TGI [41]: > 100 µM
TGI [42]: > 100 µM
TGI [43]: > 100 µM
TGI [44]: > 100 µM
TGI [45]: > 100 µM
TGI [46]: > 100 µM
TGI [47]: > 100 µM
TGI [48]: > 100 µM
TGI [49]: > 100 µM
TGI [50]: > 100 µM
TGI [51]: > 100 µM
TGI [52]: > 100 µM
TGI [53]: > 100 µM
TGI [54]: > 100 µM
TGI [55]: > 100 µM

OCC(O)C(O)C(O)C(/C=N\Nc1ncnc2ccc(Br)cc12)=N/Nc1ncnc2ccc(Br)cc12 (stereo unspecified)
TGI [1]: > 100 µM
TGI [2]: > 100 µM
TGI [56]: 18 µM
TGI [3]: > 100 µM
TGI [6]: > 100 µM
TGI [7]: > 100 µM
TGI [8]: > 100 µM
TGI [57]: > 100 µM
TGI [9]: > 100 µM
TGI [10]: > 100 µM
TGI [11]: > 100 µM
TGI [12]: > 100 µM
TGI [13]: > 100 µM
TGI [14]: 57 µM
TGI [15]: > 100 µM
TGI [16]: > 100 µM
TGI [17]: > 100 µM
TGI [18]: > 100 µM
TGI [19]: > 100 µM
TGI [20]: > 100 µM
TGI [21]: > 100 µM
TGI [23]: > 100 µM
TGI [24]: 54.9 µM
TGI [25]: > 100 µM
TGI [26]: > 100 µM
TGI [27]: > 100 µM
TGI [28]: > 100 µM
TGI [30]: > 100 µM
TGI [31]: > 100 µM
TGI [32]: > 100 µM
TGI [34]: > 100 µM
TGI [58]: > 100 µM
TGI [35]: > 100 µM
TGI [36]: 71.2 µM
TGI [37]: > 100 µM
TGI [38]: > 100 µM
TGI [39]: > 100 µM
TGI [41]: > 100 µM
TGI [42]: > 100 µM
TGI [43]: > 100 µM
TGI [44]: > 100 µM
TGI [45]: > 100 µM
TGI [46]: > 100 µM
TGI [48]: > 100 µM
TGI [49]: > 100 µM
TGI [50]: > 100 µM
TGI [51]: > 100 µM
TGI [52]: > 100 µM
TGI [53]: > 100 µM
TGI [54]: > 100 µM
TGI [55]: > 100 µM
